Article PMC11233931, “Remodeling tumor‐associated macrophage for anti‐cancer effects by rational design of irreversible inhibition of mitogen‐activated protein kinase‐activated protein kinase 2” (MedComm, 2024)

Assays:
Assay in all cases: Eurofins kinase selectivity profile against 380 other human recombinant kinases (Table S2)
Assay type in all cases: biochemical
[1] = molecular target: T1, 380 human recombinant protein kinases (Homo sapiens, UniProt O00238); conditions: ALK6(h), read-out: Inhibition rate
T1 construct: purchased Eurofins (Celle Lévescault)
Procedure, shortened: (§1)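 Off-target profiling: one compound assayed by a commercial provider over 380 recombinant human protein kinases at various concentrations.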

[2] = molecular target: T2, 380 human recombinant protein kinases (Homo sapiens, UniProt P48730); conditions: CK1δ(h), read-out: Inhibition rate
T2 construct: purchased Eurofins (Celle Lévescault)
Procedure, shortened: as §1

[3] = molecular target: T3, 380 human recombinant protein kinases (Homo sapiens, UniProt P30530); conditions: Axl(h), read-out: Inhibition rate
T3 construct: purchased Eurofins (Celle Lévescault)
T3 sequence (P30530 26-894): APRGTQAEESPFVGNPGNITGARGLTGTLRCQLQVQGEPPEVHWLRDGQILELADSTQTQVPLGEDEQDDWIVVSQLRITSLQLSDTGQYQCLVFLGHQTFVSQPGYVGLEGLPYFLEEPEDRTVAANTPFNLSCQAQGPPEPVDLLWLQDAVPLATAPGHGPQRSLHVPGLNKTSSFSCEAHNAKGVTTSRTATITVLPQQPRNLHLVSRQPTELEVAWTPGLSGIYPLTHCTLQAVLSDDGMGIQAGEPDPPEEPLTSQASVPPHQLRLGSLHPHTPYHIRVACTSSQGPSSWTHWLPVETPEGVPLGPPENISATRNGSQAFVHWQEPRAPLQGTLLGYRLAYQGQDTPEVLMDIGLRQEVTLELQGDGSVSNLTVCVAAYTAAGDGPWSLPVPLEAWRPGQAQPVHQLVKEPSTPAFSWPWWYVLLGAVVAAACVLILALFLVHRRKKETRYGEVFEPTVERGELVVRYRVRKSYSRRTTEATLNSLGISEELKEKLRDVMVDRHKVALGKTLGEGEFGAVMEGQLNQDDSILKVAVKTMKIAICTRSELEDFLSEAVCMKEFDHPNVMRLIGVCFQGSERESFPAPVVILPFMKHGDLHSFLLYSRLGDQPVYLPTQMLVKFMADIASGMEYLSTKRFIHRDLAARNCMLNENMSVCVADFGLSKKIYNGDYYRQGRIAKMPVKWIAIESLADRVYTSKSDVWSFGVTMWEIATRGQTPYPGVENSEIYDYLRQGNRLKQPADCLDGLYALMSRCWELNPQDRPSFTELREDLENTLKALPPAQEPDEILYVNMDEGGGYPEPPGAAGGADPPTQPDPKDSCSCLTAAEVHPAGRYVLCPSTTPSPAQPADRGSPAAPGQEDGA
Procedure, shortened: as §1

[4] = molecular target: T4, 380 human recombinant protein kinases (Homo sapiens, UniProt Q05397); conditions: FAK(h), read-out: Inhibition rate
T4 construct: purchased Eurofins (Celle Lévescault)
Procedure, shortened: as §1

[5] = molecular target: T5, 380 human recombinant protein kinases (Homo sapiens, UniProt P42680); conditions: Tec(h) activated, read-out: Inhibition rate (%)
T5 construct: purchased Eurofins (Celle Lévescault)
T5 sequence (P42680 1-631): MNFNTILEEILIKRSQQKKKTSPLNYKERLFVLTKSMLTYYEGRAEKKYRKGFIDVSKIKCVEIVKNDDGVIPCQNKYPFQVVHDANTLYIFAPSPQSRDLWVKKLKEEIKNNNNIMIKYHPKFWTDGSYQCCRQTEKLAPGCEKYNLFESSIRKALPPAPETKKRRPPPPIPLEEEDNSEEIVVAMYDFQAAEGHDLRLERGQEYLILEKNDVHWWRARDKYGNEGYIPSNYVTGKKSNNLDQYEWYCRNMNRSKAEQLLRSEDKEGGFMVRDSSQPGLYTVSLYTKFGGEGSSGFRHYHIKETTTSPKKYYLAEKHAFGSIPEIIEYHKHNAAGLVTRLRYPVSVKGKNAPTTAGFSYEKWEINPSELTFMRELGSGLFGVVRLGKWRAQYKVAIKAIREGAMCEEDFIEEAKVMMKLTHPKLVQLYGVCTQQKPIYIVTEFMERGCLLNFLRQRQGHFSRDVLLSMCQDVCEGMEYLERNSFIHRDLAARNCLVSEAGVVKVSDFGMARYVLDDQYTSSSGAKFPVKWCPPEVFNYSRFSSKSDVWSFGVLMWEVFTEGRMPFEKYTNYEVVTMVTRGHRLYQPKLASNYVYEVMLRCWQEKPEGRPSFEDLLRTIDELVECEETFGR
Procedure, shortened: as §1

[6] = molecular target: T6, 380 human recombinant protein kinases (Homo sapiens, UniProt Q96RG2); conditions: PASK(h), read-out: Inhibition rate
T6 construct: purchased Eurofins (Celle Lévescault)
Procedure, shortened: as §1

[7] = molecular target: T7, 380 human recombinant protein kinases (Homo sapiens, UniProt O96013); conditions: PAK4(h), read-out: Inhibition rate
T7 construct: purchased Eurofins (Celle Lévescault)
Procedure, shortened: as §1

[8] = molecular target: T8, 380 human recombinant protein kinases (Homo sapiens, UniProt P78527); conditions: DNA-PK(h), read-out: Inhibition rate (%)
T8 construct: purchased Eurofins (Celle Lévescault)
Procedure, shortened: as §1

[9] = molecular target: T9, 380 human recombinant protein kinases (Homo sapiens, UniProt P48729); conditions: CK1α(h), read-out: Inhibition rate
T9 construct: purchased Eurofins (Celle Lévescault)
Procedure, shortened: as §1

T6 sequence (Q96RG2 whole entry): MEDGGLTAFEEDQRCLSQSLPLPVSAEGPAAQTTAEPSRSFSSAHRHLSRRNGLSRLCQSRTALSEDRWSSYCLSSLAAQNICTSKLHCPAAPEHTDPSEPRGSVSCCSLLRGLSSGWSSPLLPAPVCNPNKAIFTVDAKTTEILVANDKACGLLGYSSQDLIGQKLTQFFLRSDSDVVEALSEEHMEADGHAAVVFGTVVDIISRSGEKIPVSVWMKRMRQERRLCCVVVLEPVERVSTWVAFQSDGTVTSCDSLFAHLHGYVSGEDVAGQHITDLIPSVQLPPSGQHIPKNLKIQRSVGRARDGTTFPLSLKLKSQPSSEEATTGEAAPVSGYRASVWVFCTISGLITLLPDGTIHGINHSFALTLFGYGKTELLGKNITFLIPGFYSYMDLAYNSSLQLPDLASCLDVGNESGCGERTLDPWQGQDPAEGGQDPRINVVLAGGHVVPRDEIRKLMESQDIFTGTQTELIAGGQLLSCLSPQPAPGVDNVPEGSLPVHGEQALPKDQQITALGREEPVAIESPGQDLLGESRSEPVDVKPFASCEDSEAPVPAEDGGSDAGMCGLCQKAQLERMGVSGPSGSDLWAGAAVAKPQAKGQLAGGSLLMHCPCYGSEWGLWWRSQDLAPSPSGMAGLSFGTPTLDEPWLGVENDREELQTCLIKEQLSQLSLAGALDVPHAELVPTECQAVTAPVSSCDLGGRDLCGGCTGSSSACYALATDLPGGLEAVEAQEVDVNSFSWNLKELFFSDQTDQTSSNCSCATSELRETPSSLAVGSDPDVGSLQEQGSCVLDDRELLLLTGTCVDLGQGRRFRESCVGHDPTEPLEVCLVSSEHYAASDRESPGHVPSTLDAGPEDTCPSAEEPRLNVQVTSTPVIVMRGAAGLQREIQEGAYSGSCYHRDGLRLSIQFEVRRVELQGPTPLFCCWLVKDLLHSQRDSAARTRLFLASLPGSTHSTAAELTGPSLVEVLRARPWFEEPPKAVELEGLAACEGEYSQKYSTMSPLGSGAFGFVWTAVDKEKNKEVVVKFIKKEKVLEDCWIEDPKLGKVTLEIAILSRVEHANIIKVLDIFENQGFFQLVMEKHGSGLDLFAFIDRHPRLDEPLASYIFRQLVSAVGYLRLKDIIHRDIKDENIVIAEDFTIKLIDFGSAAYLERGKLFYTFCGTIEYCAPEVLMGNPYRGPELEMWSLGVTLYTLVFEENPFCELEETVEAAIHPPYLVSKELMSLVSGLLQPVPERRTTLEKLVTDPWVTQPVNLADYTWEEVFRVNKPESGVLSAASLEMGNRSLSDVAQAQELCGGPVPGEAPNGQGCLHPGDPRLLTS
T4 sequence (Q05397 whole entry): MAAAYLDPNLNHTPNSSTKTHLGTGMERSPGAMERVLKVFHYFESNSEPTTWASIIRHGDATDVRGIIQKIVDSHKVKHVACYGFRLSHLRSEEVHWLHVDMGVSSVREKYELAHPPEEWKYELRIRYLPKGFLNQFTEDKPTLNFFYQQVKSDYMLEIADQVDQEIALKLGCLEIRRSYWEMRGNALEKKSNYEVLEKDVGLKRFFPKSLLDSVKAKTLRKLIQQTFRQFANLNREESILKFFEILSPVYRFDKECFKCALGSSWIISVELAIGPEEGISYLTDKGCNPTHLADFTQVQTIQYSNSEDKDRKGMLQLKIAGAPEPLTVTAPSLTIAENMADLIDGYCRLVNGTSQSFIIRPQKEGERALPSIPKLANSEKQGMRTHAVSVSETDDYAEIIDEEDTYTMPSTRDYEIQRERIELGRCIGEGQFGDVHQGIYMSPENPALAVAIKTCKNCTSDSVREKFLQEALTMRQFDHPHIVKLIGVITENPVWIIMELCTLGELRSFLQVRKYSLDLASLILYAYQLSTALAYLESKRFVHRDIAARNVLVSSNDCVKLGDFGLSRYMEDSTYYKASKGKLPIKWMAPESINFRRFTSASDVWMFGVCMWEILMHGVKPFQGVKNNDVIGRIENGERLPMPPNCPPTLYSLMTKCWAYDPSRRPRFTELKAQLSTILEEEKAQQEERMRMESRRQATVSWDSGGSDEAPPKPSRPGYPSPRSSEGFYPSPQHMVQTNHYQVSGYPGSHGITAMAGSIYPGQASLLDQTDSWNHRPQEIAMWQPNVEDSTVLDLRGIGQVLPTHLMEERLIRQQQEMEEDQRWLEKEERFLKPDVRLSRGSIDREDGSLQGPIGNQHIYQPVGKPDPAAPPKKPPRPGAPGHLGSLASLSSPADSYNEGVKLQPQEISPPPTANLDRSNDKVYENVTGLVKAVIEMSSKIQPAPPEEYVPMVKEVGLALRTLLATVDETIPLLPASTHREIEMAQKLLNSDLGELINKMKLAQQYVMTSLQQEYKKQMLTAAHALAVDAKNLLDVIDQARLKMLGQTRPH
T9 sequence (P48729 whole entry): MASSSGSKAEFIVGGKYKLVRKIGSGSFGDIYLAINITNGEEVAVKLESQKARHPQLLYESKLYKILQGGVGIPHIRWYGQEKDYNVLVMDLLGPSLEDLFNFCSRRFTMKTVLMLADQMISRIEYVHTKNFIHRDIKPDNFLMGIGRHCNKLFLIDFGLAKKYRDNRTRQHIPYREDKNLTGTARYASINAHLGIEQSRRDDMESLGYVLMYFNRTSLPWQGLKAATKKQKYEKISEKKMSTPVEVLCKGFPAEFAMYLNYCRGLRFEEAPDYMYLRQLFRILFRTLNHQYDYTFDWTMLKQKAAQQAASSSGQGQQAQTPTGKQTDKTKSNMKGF
T7 sequence (O96013 whole entry): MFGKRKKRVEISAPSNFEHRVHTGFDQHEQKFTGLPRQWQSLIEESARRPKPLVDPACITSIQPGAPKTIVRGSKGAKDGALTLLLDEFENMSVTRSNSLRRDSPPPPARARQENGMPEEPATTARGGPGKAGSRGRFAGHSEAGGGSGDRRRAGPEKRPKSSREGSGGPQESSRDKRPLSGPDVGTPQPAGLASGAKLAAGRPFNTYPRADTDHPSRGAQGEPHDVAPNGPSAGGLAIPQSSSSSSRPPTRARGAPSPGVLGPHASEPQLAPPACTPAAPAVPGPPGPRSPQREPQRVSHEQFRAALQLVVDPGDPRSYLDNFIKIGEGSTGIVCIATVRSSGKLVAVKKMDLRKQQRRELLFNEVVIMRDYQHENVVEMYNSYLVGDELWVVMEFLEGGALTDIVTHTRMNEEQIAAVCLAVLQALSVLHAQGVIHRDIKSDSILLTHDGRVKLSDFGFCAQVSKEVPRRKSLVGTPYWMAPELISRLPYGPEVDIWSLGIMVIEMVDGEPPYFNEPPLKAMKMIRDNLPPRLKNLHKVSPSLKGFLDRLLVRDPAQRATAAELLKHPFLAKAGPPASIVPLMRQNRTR
T1 sequence (O00238 14-502): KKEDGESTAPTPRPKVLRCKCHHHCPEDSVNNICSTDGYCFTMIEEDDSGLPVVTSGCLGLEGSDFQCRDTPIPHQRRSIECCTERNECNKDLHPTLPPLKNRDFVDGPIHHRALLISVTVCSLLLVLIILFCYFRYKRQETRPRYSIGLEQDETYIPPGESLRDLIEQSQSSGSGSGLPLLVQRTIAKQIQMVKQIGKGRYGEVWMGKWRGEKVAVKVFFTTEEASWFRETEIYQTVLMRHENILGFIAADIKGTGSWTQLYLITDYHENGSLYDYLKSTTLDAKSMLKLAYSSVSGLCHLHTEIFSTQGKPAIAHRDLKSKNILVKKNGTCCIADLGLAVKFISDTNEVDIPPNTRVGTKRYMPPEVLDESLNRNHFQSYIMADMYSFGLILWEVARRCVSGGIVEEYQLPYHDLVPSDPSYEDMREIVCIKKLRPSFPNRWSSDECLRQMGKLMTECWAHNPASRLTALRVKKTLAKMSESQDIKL
T2 sequence (P48730 whole entry): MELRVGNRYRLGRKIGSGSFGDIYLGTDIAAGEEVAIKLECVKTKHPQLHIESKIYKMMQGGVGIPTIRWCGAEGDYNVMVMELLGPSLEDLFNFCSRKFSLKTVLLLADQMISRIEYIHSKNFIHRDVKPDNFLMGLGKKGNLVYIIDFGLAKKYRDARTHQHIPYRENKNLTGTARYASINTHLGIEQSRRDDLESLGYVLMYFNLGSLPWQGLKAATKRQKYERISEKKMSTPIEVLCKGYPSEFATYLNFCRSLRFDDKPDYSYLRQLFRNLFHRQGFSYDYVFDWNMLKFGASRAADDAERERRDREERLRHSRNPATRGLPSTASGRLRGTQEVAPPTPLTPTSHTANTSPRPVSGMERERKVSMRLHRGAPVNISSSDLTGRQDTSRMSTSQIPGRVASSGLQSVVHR

C=CC(=O)Nc1cc(-c2cc(-c3cc4c([nH]3)CCNC4=O)ccn2)ccc1OC(F)(F)F [compound 11]
inhibition at 0.01 µM ([1]; 10 nM): -13%
inhibition at 0.1 µM ([1]; 100 nM): 4%
inhibition at 1 µM ([1]; 1000 nM): 6%
inhibition at 0.01 µM ([2]; 10 nM): 3%
inhibition at 0.1 µM ([2]; 100 nM): 26%
inhibition at 1 µM ([2]; 1000 nM): 74%
inhibition at 0.01 µM ([3]; 10 nM): -21%
inhibition at 0.1 µM ([3]; 100 nM): -6%
inhibition at 1 µM ([3]; 1000 nM): 26%
inhibition at 0.01 µM ([4]; 10 nM): -10%
inhibition at 0.1 µM ([4]; 100 nM): -1%
inhibition at 1 µM ([4]; 1000 nM): 1%
inhibition at 0.01 µM ([5]; 10 nM): 8%
inhibition at 0.1 µM ([5]; 100 nM): 11%
inhibition at 1 µM ([5]; 1000 nM): 17%
inhibition at 0.01 µM ([6]; 10 nM): 13%
inhibition at 0.1 µM ([6]; 100 nM): 4%
inhibition at 1 µM ([6]; 1000 nM): 12%
inhibition at 0.01 µM ([7]; 10 nM): 2%
inhibition at 0.1 µM ([7]; 100 nM): -2%
inhibition at 1 µM ([7]; 1000 nM): 2%
inhibition at 0.01 µM ([8]; 10 nM): -1%
inhibition at 0.1 µM ([8]; 100 nM): 2%
inhibition at 1 µM ([8]; 1000 nM): 3%
inhibition at 0.01 µM ([9]; 10 nM): 15%
inhibition at 0.1 µM ([9]; 100 nM): 30%
inhibition at 1 µM ([9]; 1000 nM): 70%
